Test results as given in ChEMBL document CHEMBL1201862, “PubChem BioAssay data set” (2004).
“And” between values parts separate entries of the source, which are not always exact repeats. Identical values can stand only once.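 Test compounds were applied to cells in 96-well plates for 48 hours at 5 doses. At the GI50, growth is halved.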 The source made the active and inactive calls. Rule as the data show it: active = GI50 up to about 1.1 µM and inactive = higher.

Columns and labels:
Test in all cases: NCI tumour cell line growth inhibition, 48 h
COLO 205 = system: COLO 205
Malme-3M = system: Malme-3M
EKVX = system: EKVX
SF-268 = system: SF-268
OVCAR-8 = system: OVCAR-8
SW-620 = system: SW-620
NCI/ADR-RES = system: NCI/ADR-RES
RXF 393 = system: RXF 393
A498 = system: A498
NCI-H522 = system: NCI-H522
SK-MEL-28 = system: SK-MEL-28
M14 = system: M14
CCRF-CEM = system: CCRF-CEM
UO-31 = system: UO-31
NCI-H226 = system: NCI-H226
T47D = system: T47D
LOX IMVI = system: LOX IMVI
HCC 2998 = system: HCC 2998

| SMILES | GI50 (COLO 205) | GI50 (Malme-3M) | GI50 (EKVX) | GI50 (SF-268) | GI50 (OVCAR-8) | GI50 (SW-620) | GI50 (NCI/ADR-RES) | GI50 (RXF 393) | GI50 (A498) | GI50 (NCI-H522) | GI50 (SK-MEL-28) | GI50 (M14) | GI50 (CCRF-CEM) | GI50 (UO-31) | GI50 (NCI-H226) | GI50 (T47D) | GI50 (LOX IMVI) | GI50 (HCC 2998) |
| --- | --- | --- | --- | --- | --- | --- | --- | --- | --- | --- | --- | --- | --- | --- | --- | --- | --- | --- |
| Cn1c(=O)c2c(nc(C(=N)SCC(=O)O)n2C)n(C)c1=O | 31.3 µM (inactive) | 45.1 µM (inactive) | 29.1 µM (inactive) | 39.3 µM (inactive) | 42.7 µM (inactive) | 52.1 µM (inactive) | 33.3 µM (inactive) | 53.1 µM (inactive) | 26.9 µM (inactive) | 41.9 µM (inactive) | 37.7 µM (inactive) | 43.5 µM (inactive) | 5.57 µM (inactive) | 41.8 µM (inactive) | 58.9 µM (inactive) | 33.2 µM (inactive) | 48.1 µM (inactive) | – |
| Cc1ccc(Nc2nnc(-c3ccc4c(c3)OCO4)o2)c(C)c1 | > 100 µM (inactive) | > 100 µM (inactive) | 82 µM (inactive) | 64.4 µM (inactive) | 55.1 µM (inactive) | > 100 µM (inactive) | > 100 µM (inactive) | > 100 µM (inactive) | 39.6 µM (inactive) | 30.5 µM (inactive) | > 100 µM (inactive) | > 100 µM (inactive) | – | > 100 µM (inactive) | > 100 µM (inactive) | 36.2 µM (inactive) | > 100 µM (inactive) | > 100 µM (inactive) |
| Cc1cccc(N/C(Sc2ccccc2)=C(/C(Cl)=C(Cl)Cl)[N+](=O)[O-])c1 | 15.6 µM (inactive) | 16.5 µM (inactive) | 16.9 µM (inactive) | 17.8 µM (inactive) | 16.1 µM (inactive) | 17.4 µM (inactive) | 15.8 µM (inactive) | – | 16.8 µM (inactive) | – | 17.4 µM (inactive) | 18.8 µM (inactive) | 27 µM (inactive) | 14.7 µM (inactive) | 16.6 µM (inactive) | 18 µM (inactive) | – | 39.4 µM (inactive) |
| C#CCOC(=O)C(=[N+]=[N-])C(=O)CC(C)C | > 10 µM (inactive) | > 10 µM (inactive) | > 10 µM (inactive) | > 10 µM (inactive) | > 10 µM (inactive) | > 10 µM (inactive) | > 10 µM (inactive) | > 10 µM (inactive) | > 10 µM (inactive) | – | > 10 µM (inactive) | > 10 µM (inactive) | > 10 µM (inactive) | > 10 µM (inactive) | > 10 µM (inactive) | > 10 µM (inactive) | > 10 µM (inactive) | > 10 µM (inactive) |
| CC(=O)OC1COC(n2c(N)c(C#N)c(C)c(C#N)c2=S)C(OC(C)=O)C1OC(C)=O (stereo not drawn) | – | > 100 µM (inactive) | – | > 100 µM (inactive) and 85.5 µM (inactive) | > 100 µM (inactive) | > 100 µM (inactive) | > 100 µM (inactive) | – | > 100 µM (inactive) | > 100 µM (inactive) | > 100 µM (inactive) | > 100 µM (inactive) | – | > 100 µM (inactive) | > 100 µM (inactive) | 55.3 µM (inactive) and 58.3 µM (inactive) | > 100 µM (inactive) | 75.3 µM (inactive) |
| CN(C)c1ccc2c3c(c(=O)oc2c1)CCC3 | 33.1 µM (inactive) | – | 9.14 µM (inactive) | 34.8 µM (inactive) | 64.4 µM (inactive) | > 100 µM (inactive) | 65.8 µM (inactive) | 64 µM (inactive) | 29.4 µM (inactive) | 26.7 µM (inactive) | > 100 µM (inactive) | 92.3 µM (inactive) | 75 µM (inactive) | > 100 µM (inactive) | 85.5 µM (inactive) | 36.1 µM (inactive) | 40.6 µM (inactive) | 54.7 µM (inactive) |
| Cc1ccc2c(=O)c(C(=O)Nn3c(C)csc3=S)c[nH]c2n1 | > 100 µM (inactive) | > 100 µM (inactive) | > 100 µM (inactive) | > 100 µM (inactive) | > 100 µM (inactive) | > 100 µM (inactive) | > 100 µM (inactive) | > 100 µM (inactive) | > 100 µM (inactive) | > 100 µM (inactive) | > 100 µM (inactive) | > 100 µM (inactive) | > 100 µM (inactive) | > 100 µM (inactive) | 83 µM (inactive) | > 100 µM (inactive) | > 100 µM (inactive) | – |
| COC(=O)[C@@]1(Cc2ccc(OC(C)=O)cc2)Cc2cc3ccccc3n2N1 | 31.2 µM (inactive) | 47.5 µM (inactive) | 23.8 µM (inactive) | 60.4 µM (inactive) | 50.8 µM (inactive) | 29.2 µM (inactive) | 26.5 µM (inactive) | – | 23.1 µM (inactive) | 24 µM (inactive) | 54.6 µM (inactive) | 39.4 µM (inactive) | 26.5 µM (inactive) | 50.7 µM (inactive) | 63.4 µM (inactive) | 24.8 µM (inactive) | 38.6 µM (inactive) | – |
| Cc1cc(NS(=O)(=O)c2ccc(Nc3c4ccccc4nc4c(C(=O)NCCO)cccc34)cc2)no1 | 32.9 µM (inactive) | 28.1 µM (inactive) | 60 µM (inactive) | 30.5 µM (inactive) | 34.5 µM (inactive) | 22.6 µM (inactive) | > 100 µM (inactive) | – | 30.1 µM (inactive) | 11.4 µM (inactive) | 30.3 µM (inactive) | 29 µM (inactive) | 15.2 µM (inactive) | 25.2 µM (inactive) | – | 19.7 µM (inactive) | 27.6 µM (inactive) | 40.7 µM (inactive) |
| CN(C(=O)C1=CCCCCC1)c1ccccc1I | 15.8 µM (inactive) | – | 28.4 µM (inactive) | 24.3 µM (inactive) | 38.5 µM (inactive) | 40.6 µM (inactive) | 25.6 µM (inactive) | > 100 µM (inactive) | 0.201 µM (active) | – | 37.5 µM (inactive) | 31.6 µM (inactive) | 41.7 µM (inactive) | 41.4 µM (inactive) | – | 23.7 µM (inactive) | 28.9 µM (inactive) | 45.9 µM (inactive) |
| C[C@@H](CO)C1=C(O)C(=O)c2c(ccc3c2CCCC3(C)C)C1=O | 38.3 µM (inactive) | 15.9 µM (inactive) | 33.5 µM (inactive) | 32.2 µM (inactive) | 35.2 µM (inactive) | 28.3 µM (inactive) | 38.8 µM (inactive) | 43.8 µM (inactive) | 33 µM (inactive) | 15.5 µM (inactive) | 30.8 µM (inactive) | 17.7 µM (inactive) | 3.33 µM (inactive) | 33.3 µM (inactive) | 28.2 µM (inactive) | 50.6 µM (inactive) | 59.4 µM (inactive) | – |
| Cc1[nH]c2c(c1Cc1ccccc1)C1=NC=C(O)NN1C=N2 | 22 µM (inactive) | > 100 µM (inactive) | > 100 µM (inactive) | 94.2 µM (inactive) | 51.4 µM (inactive) | 21.5 µM (inactive) | > 100 µM (inactive) | 16.6 µM (inactive) | > 100 µM (inactive) | 43.7 µM (inactive) | > 100 µM (inactive) | > 100 µM (inactive) | 20.5 µM (inactive) | > 100 µM (inactive) | > 100 µM (inactive) | 14.4 µM (inactive) | – | 53.8 µM (inactive) |
| O=C1NC(=O)/C(=C/c2ccc(S(=O)(=O)N/N=C\C(O)C(O)C(O)C(O)CO)cc2)N1 (stereo not drawn) | > 100 µM (inactive) | > 100 µM (inactive) | > 100 µM (inactive) | > 100 µM (inactive) | > 100 µM (inactive) | > 100 µM (inactive) | > 100 µM (inactive) | > 100 µM (inactive) | > 100 µM (inactive) | – | > 100 µM (inactive) | > 100 µM (inactive) | > 100 µM (inactive) | > 100 µM (inactive) | > 100 µM (inactive) | > 100 µM (inactive) | > 100 µM (inactive) | > 100 µM (inactive) |
| O=C1c2n[nH]nc2C(=O)c2n[nH]nc21 | > 100 µM (inactive) | – | > 100 µM (inactive) | > 100 µM (inactive) | > 100 µM (inactive) | > 100 µM (inactive) | > 100 µM (inactive) | > 100 µM (inactive) | > 100 µM (inactive) | > 100 µM (inactive) | > 100 µM (inactive) | > 100 µM (inactive) | > 100 µM (inactive) | > 100 µM (inactive) | > 39.2 µM (inactive) | > 100 µM (inactive) | > 100 µM (inactive) | > 100 µM (inactive) |
| N#Cc1ccc(-c2nc3c(N)nc(-c4ccccc4)nc3o2)cc1 | > 100 µM (inactive) | – | > 100 µM (inactive) | > 100 µM (inactive) | 12.9 µM (inactive) | > 100 µM (inactive) | 40.3 µM (inactive) | 23.8 µM (inactive) | > 100 µM (inactive) | 25 µM (inactive) | > 100 µM (inactive) | > 100 µM (inactive) | > 10 µM (inactive) | > 100 µM (inactive) | > 100 µM (inactive) | > 100 µM (inactive) | > 100 µM (inactive) | > 100 µM (inactive) |
| CONC(C)=O | > 100 µM (inactive) | > 100 µM (inactive) | > 100 µM (inactive) | > 100 µM (inactive) | > 100 µM (inactive) | > 100 µM (inactive) | > 100 µM (inactive) | – | > 100 µM (inactive) | > 100 µM (inactive) | > 100 µM (inactive) | > 100 µM (inactive) | > 100 µM (inactive) | > 100 µM (inactive) | > 100 µM (inactive) | > 100 µM (inactive) | > 100 µM (inactive) | > 100 µM (inactive) |
| COc1ccccc1-c1nc(O)c2ccccc2n1 | > 100 µM (inactive) | > 100 µM (inactive) | 59.6 µM (inactive) | > 100 µM (inactive) | > 100 µM (inactive) | > 100 µM (inactive) | > 100 µM (inactive) | > 100 µM (inactive) | > 100 µM (inactive) | – | – | > 100 µM (inactive) | > 100 µM (inactive) | > 100 µM (inactive) | 68.1 µM (inactive) | 49.9 µM (inactive) | – | > 100 µM (inactive) |
